Reference: patent US20120232113A1, “METHODS OF TREATING EMESIS USING GROWTH HORMONE SECRETAGOGUES” (HELSINN THERAPEUTICS (U.S.), INC., priority 2007, published 2012)
Square brackets hold non-standard residues; d marks the D form. Ends that are not written are not given here. Peptide text beside a SMILES is read from it. d2Nal = N[C@H](Cc1ccc2ccccc2c1)C(=O)O; Aib = CC(C)(N)C(=O)O

Tests used:
[1] = test system: ferrets treated with cisplatin; assay: Anti-emetic response assay in ferrets treated with cisplatin; format: in vivo, ferret; details: for average vomiting episodes during the 4-hour observation period / average retching episodes during the 4-hour observation period: cisplatin 10 mg/kg i.p., two i.v. injections 30 min apart, ghrelin 0.25, ipamorelin 1.0 mg/kg/dose; for average vomiting episodes during the 4-hour observation period: saline control 1.78; for average retching episodes during the 4-hour observation period: saline control 4.89; for anti-emetic efficacy relative to control animals, conclusion in words: i.v., ghrelin 0.25 mg/kg/dose, ipamorelin 1.0 mg/kg/dose; for onset time of emetic response following cisplatin administration (latent period): vs saline control, 4-hour observation
Text: The purpose of this study was to evaluate the anti-emetic response of Ipamorelin following a single intravenous injection (slow bolus) in ferrets treated with cisplatin.
30 male ferrets (24-weeks old) were used in this experiment. Subsequent to arrival, all animals were subjected to a general physical examination by a qualified member of the veterinary staff to ensure normal health status. An acclimation period of at least one week was allowed between the animal receipt and the start of treatment in order to accustom the animals to the laboratory environment.
Animals were randomized into the following groups:
Dosing occurred on consecutive days with approximately equal numbers of animals from each group being dosed on each day. Immediately following a single intraperitoneal injection of cisplatin, the controUreference/test article was administered via a slow intravenous injection via the cephalic or saphenous vein. Thirty minutes later, a second slow intravenous injection of the controUreference/test article was administered via a slow intravenous injection via the cephalic or saphenous vein. On each occasion, the dose volume was 5 mL/kg (cisplatin as well as control/reference/test article) and the actual dose administered was based on the most recent practical body weight of each animal.
Following dosing, the ferrets were monitored and observed for episodes of emesis for an approximate four hour period, which was subdivided into 10-minute intervals. The time prior to the first episode of retching or vomiting was recorded (latent period), as well the total number of retching and vomiting periods, over each 10-minute interval, through the overall observation period (4 hours post dose).
For the purposes of this study, episodes of emesis were defined as rhythmic abdominal contractions associated with oral expulsion of solid or liquid material from the gastrointestinal tract (i.e. vomiting) or not associated with the passage of material (i.e. retching). An episode of retching and/or vomiting was considered separate when an animal changed position in the cage or when the interval between retches and/or vomits exceeds an approximate 5 second period.
The anti-emetic response was evaluated using the individual observation for: the latent period, the average of retching episodes per 10-minute interval with presence of retching, the average of vomiting episodes per 10-minute interval with presence of vomiting, the total frequency of retching episodes for the observation period, the total frequency of vomiting episodes for the observation period, the total number of 10-minute intervals with presence of retching and the total number of 10-minute intervals with presence of vomiting. Whenever there was no retching or vomiting episode for the whole animal observation period, the latent period was set to 4 hours and the average of retching/vomiting episodes per interval with presence of retching/vomiting was set to zero. Each of these seven parameters was submitted to the following statistical comparison.
The non-parametric Kruskal-Wallis test was used to compare all considered groups. If the Kruskal-Wallis test was significant (p<0.05), then the Saline Control group was compared to each treated group using Dunn's test.

[2] = test system: cancer patients; assay: 12 week double blind, placebo controlled, randomized parallel study, Anderson Symptom Assessment System (ASAS) test; format: in vivo, human; details: 12 weeks
Text: A double blind, placebo controlled, randomized study was designed to investigate the ability of growth hormone secretagogues to be used for the treatment of emetic conditions.
82 human subjects were enrolled in a 12 week parallel study. Of the 82 subjects, 74 subjects were classified in the intent to treat group (ITT). These 74 subjects all had active cancer, received at least one dose of study medication, and had at least one post-dose efficacy measurement. The 74 subjects were separated into two groups: the placebo group and the RC-1291 group. 30 of the 36 placebo group subjects and 33 of the 38 RC-1291 group subjects were receiving some form of chemotherapy. The RC-1291 group received 50 mg of RC-1291 in two 25 mg capsules daily. The placebo group received two capsules daily.
The effect of RC-1291 administered to cancer patients was compared to the effect of placebo administered to a similar group of patients. In order to determine the ability of RC-1291 to reduce a subject's cancer symptom burden, i.e. Quality-of-Life, subjects were administered the Anderson Symptom Assessment System (ASAS) test prior to, during and at the completion of the study. The ASAS test is conducted by asking subjects to rate on a 0-10 scale the severity of 10 symptoms: pain, fatigue, nausea, depression, anxiety, drowsiness, shortness of breath, appetite, sleep and feeling of well being (see, Palmer et al. (2005) J. Pain and Symptom Management 6:565-571). The text below reflects and inversion of the ASAS scores such that higher values reflect a better Quality-of-Life: […]

[3] = test system: cancer patients; assay: Separate crossover study (3 days treatment), ASAS nausea symptom scale; format: in vivo, human
Procedure: The effect of RC-1291 administered to cancer patients was compared to the effect of placebo administered to a similar group of patients. In order to determine the ability of RC-1291 to reduce a subject's cancer symptom burden, i.e. Quality-of-Life, subjects were administered the Anderson Symptom Assessment System (ASAS) test prior to, during and at the completion of the study. The ASAS test is conducted by asking subjects to rate on a 0-10 scale the severity of 10 symptoms: pain, fatigue, nausea, depression, anxiety, drowsiness, shortness of breath, appetite, sleep and feeling of well being (see, Palmer et al. (2005) J. Pain and Symptom Management 6:565-571). The text below reflects and inversion of the ASAS scores such that higher values reflect a better Quality-of-Life:
In a separate crossover study, 16 cancer patients were treated with RC-1291 or placebo as described above for 3 days, washed out for ˜5 days and then administered placebo or RC-1291 (whichever one they had not received in the initial 3 day period). 12 of 16 placebo group subjects and 11 of the 16 RC-1291 group subjects were receiving some form of chemotherapy.

Compound	average vomiting episodes during the 4-hour observation period [1]	average retching episodes during the 4-hour observation period [1]	anti-emetic efficacy relative to control animals, conclusion in words [1]	reduction in number of retching episodes compared to saline control animals ([1]; ipamorelin 1.0 mg/kg/dose i.v., p<0.05) [%]	reduction in vomiting episodes relative to saline control animals ([1]; ipamorelin 1.0 mg/kg/dose i.v., p>0.05)	onset time of emetic response following cisplatin administration (latent period) [1]	increase in total ASAS score relative to baseline ([2]; 50 mg daily in two 25 mg capsules, inverted ASAS scores (higher = better Quality-of-Life), placebo decrease of 5.13)	overall difference in total ASAS score between the two groups ([2]; RC-1291 50 mg daily vs placebo, p-0.0287)	ASAS nausea symptom scale, overall difference between treatment groups ([2]; RC-1291 50 mg daily vs placebo, p=0.0046)	onset of anti-nausea effects [3] [days]	ASAS nausea symptom scale, overall difference between treatments ([3]; RC-1291 vs placebo, p=0.0756)	nausea (ASAS nausea symptom scale), result in words ([3]; increased nausea with placebo)
CC(C)(N)C(=O)N[C@@H](Cc1c[nH]cn1)C(=O)N[C@H](Cc1ccc2ccccc2c1)C(=O)N[C@H](Cc1ccccc1)C(=O)N[C@@H](CCCCN)C(N)=O [Ipamorelin] (H-[Aib]H[d2Nal][dF]K-NH2)	0.75	1.14	significantly decreased the number of retching episodes	82	failed to reach statistical significance	modest, non-statistically significant (p>0.05) delay						
CN(C)N(C)C(=O)[C@@]1(Cc2ccccc2)CCCN(C(=O)[C@@H](Cc2c[nH]c3ccccc23)NC(=O)C(C)(C)N)C1 [RC-1291]							1.52	6.66	1.46	≤ 3	0.71	Decreased nausea
Ghrelin: ghrelin peptide, reference article in the ferret study (GSSFLSPEHQRVQQRKESKKPPAKLQPR; ends and bridges not checked; UniProt Q9UBU3 24-51, looked up) [reference compound]	1.60	7.00	did not display a significant efficacy			Neither the onset time nor the numbers of retches or vomits were statistically different						
